Assay results: PMC9204419, “A Toolbox for the Generation of Chemical Probes for Baculovirus IAP Repeat Containing Proteins” (Frontiers in Cell and Developmental Biology, 2022)
Like-named read-outs stand apart in the source and are kept apart here.

Key:
[1] = target: BIRC3 (Homo sapiens, UniProt Q13489); test: NanoBRET cellular target engagement, full-length BIRC3
Procedure: (§1) In brief: Constructs contained the cDNA of full-length or single domains cloned in frame with an N-terminal NanoLuc-fusion as specified in Supplementary Table S2. Plasmids were transfected into HEK293T cells using FuGENE HD (Promega, E2312) and proteins were allowed to express for 20 h. […] The corresponding transfected cells were added and reseeded at a density of 2.5^5 cells/mL after trypsinization and resuspending in Opti-MEM without phenol red (Life Technologies). […] Competitive displacement data were then graphed using GraphPad Prism 9.3 software using a normalized 3-parameter curve fit with the following equation: Y = 100/(1 + 10^(X-LogIC50)).

[2] = target: BIRC3 BIR2 (Homo sapiens, UniProt Q13489); test: NanoBRET cellular target engagement, single domain BIRC3 BIR2
Procedure: as §1

[3] = target: T1, BIRC7 BIR (Homo sapiens, UniProt Q96CA5); test: NanoBRET cellular target engagement, single domain BIRC7 BIR
T1 sequence (Q96CA5 70-176): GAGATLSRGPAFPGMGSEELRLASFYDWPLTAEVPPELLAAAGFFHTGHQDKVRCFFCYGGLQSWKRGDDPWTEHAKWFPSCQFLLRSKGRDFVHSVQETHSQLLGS
Procedure: as §1

[4] = target: T2, BIRC7 (Homo sapiens, UniProt Q96CA5); test: NanoBRET cellular target engagement, full-length BIRC7
T2 sequence (Q96CA5 1-298): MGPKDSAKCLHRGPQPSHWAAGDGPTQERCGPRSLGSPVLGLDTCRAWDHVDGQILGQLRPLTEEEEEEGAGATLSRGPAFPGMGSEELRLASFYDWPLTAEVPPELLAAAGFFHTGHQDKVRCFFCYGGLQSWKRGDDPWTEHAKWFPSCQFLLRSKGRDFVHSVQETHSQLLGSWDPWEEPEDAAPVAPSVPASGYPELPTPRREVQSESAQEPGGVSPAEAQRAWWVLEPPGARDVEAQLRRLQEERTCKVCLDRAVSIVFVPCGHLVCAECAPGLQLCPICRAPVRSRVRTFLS
Procedure: as §1

[5] = target: BIRC2 (Homo sapiens, UniProt Q13490); test: NanoBRET cellular target engagement, full-length BIRC2
[6] = target: BIRC3 BIR3 (Homo sapiens, UniProt Q13489); test: NanoBRET cellular target engagement, single domain BIRC3 BIR3
[7] = target: T3, BIRC1 BIR[2] (Homo sapiens, UniProt Q13075); test: NanoBRET cellular target engagement, single domain BIRC1 BIR[2]
T3 sequence (Q13075 139-251): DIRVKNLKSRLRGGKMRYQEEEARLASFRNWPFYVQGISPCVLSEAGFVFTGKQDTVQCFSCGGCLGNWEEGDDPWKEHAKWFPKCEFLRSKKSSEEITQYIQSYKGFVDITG
Procedure: as §1

[8] = target: T4, BIRC8 BIR (Homo sapiens, UniProt Q96P09); test: NanoBRET cellular target engagement, single domain BIRC8 BIR
T4 sequence (Q96P09 1-90): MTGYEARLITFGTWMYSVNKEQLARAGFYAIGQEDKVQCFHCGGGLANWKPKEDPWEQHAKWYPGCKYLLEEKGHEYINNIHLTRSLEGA
Procedure: as §1

[9] = target: T5, BIRC2-BIR3 domain (Homo sapiens, UniProt Q13490); test: Fluorescence polarization (FP) competition assay with fluorescent SMAC probe; assay type: binding; set-up: BIRC2-BIR3 domain (260–352) was expressed; His6 (N, cleaved yes); GST (N, cleaved yes); made in house; host or cells: E. coli; conditions: for Ki: read-out: FP Assay K I Values
Procedure: Resulting data was plotted using GraphPad Prism 9.3 software and analyzed using a nonlinear fit to calculate the probe IC50. […] Compounds were titrated from 20 μM to 20 nM using an ECHO 550 acoustic dispenser (Labcyte) incubated for 1 h at room temperature and subsequent read out.
The assay is based on the displacement of a fluorescent SMAC mimetic from the binding site.

[10] = target: BIRC2 BIR2 (Homo sapiens, UniProt Q13490); test: NanoBRET cellular target engagement, single domain BIRC2 BIR2
Procedure: as §1

[11] = target: T6, BIRC8 (Homo sapiens, UniProt Q96P09); test: NanoBRET cellular target engagement, full-length BIRC8
T6 sequence (Q96P09 1-236): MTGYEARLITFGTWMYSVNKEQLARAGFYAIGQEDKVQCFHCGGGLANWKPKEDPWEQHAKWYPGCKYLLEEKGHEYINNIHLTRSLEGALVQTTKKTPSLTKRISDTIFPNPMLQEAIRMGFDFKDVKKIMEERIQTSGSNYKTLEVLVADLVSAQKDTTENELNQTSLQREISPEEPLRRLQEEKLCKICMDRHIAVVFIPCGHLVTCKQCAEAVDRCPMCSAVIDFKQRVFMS
Procedure: as §1

[12] = target: T5, BIRC2-BIR3 domain; test: Isothermal titration calorimetry (ITC); assay type: binding; set-up: BIRC2-BIR3 domain (260–352) was expressed; His6 (N, cleaved yes); GST (N, cleaved yes); made in house; host or cells: E. coli
Procedure: For this protocol, the chamber was pre-equilibrated with the test compound, and the BIRC2-BIR3 domain was titrated in while continuously measuring the rate of exothermic heat evolution. The heat of binding was integrated, corrected, and fitted to an independent single-binding site model based on the manufacturer’s instructions, from which thermodynamic parameters (ΔH and TΔS), equilibrium association and dissociation constants (K A and K D, respectively), and stoichiometry (n) were calculated.

[13] = target: BIRC2 BIR3 (Homo sapiens, UniProt Q13490); test: NanoBRET cellular target engagement, single domain BIRC2 BIR3
Procedure: as §1

[14] = target: T5, BIRC2-BIR3 domain; test: Differential scanning fluorimetry (DSF); conditions: for ΔTm at 40 µM: read-out: DSF Assay ΔTm; for ΔTm [°C] (Supplementary Table S1): technical replicate
Procedure: Purified proteins were buffered in DSF buffer (25 mM HEPES pH 7.5, 500 mM NaCl) and were assayed in a 384-well plate (Thermo, #BC3384) with a final protein concentration of 20 μM in 10 μL final assay volume. Inhibitors were added in excess to a final concentration of 40 μM, using an ECHO 550 acoustic dispenser (Labcyte). As a fluorescent probe, SYPRO-Orange (Molecular Probes) was used at 5x final concentration. […] Data was analyzed using Boltzmann-equation in the Protein Thermal Shift software (Applied Biosystems). Samples were measured in technical triplicates.
The assay was run in the presence of DMSO to exclude DMSO influences towards melting temperature differences when testing small molecules (Figures 2C,D).

[15] = target: BIRC4 (Homo sapiens, UniProt P98170); test: NanoBRET cellular target engagement, full-length BIRC4
Procedure: as §1

[16] = 25°C, duplicates, mean ± SD, read-out: K D Measured in ITC

BIRC3 BIR3, sequence (Q13489 236-360): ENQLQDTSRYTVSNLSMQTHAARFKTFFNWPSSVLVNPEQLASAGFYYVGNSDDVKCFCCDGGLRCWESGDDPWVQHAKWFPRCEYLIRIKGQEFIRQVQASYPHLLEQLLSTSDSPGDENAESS
BIRC3, sequence (Q13489 whole entry, the tested form may be a part): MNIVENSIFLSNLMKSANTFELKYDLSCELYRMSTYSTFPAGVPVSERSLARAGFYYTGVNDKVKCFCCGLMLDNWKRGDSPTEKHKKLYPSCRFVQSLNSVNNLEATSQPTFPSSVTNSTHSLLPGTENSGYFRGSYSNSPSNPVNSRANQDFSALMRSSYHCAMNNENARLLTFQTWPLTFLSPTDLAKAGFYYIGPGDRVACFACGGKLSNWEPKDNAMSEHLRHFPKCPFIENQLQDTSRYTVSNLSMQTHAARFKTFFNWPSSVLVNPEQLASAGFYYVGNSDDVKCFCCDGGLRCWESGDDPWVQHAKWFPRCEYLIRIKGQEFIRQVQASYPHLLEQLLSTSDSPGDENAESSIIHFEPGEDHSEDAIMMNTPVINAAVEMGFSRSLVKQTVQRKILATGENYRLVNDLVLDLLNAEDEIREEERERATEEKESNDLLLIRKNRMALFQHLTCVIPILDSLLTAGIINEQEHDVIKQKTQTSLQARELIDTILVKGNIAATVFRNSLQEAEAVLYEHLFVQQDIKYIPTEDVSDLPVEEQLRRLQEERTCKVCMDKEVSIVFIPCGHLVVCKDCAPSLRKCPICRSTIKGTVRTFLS
T5 sequence (Q13490 260-352): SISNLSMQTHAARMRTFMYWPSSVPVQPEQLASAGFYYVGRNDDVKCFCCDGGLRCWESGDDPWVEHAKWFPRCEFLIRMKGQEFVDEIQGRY
BIRC2 BIR3, sequence (Q13490 251-372): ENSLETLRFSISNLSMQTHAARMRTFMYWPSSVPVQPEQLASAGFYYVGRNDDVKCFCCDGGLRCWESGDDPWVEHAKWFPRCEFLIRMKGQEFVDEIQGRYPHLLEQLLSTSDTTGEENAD
BIRC3 BIR2, sequence (Q13489 147-253): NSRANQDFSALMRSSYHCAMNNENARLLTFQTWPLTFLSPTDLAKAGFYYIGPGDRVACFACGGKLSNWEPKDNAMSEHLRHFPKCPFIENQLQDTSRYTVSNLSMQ
BIRC4, sequence (P98170 whole entry): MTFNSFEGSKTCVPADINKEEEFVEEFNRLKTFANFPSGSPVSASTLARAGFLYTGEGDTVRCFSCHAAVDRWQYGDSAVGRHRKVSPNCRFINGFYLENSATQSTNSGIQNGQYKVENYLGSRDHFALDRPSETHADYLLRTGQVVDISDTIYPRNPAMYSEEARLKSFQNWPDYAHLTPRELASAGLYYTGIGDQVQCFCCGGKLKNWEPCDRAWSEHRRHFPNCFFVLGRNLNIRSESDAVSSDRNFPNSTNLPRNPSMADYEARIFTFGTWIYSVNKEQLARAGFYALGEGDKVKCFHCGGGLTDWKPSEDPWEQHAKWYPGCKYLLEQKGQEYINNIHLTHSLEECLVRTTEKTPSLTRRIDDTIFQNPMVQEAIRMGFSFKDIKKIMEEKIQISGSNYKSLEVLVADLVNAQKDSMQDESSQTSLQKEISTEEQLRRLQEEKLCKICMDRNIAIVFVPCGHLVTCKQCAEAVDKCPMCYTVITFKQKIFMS
BIRC2 BIR2, sequence (Q13490 165-267): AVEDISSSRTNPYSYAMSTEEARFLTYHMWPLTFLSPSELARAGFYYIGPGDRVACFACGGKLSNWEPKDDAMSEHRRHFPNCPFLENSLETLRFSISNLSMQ
BIRC2, sequence (Q13490 whole entry, the tested form may be a part): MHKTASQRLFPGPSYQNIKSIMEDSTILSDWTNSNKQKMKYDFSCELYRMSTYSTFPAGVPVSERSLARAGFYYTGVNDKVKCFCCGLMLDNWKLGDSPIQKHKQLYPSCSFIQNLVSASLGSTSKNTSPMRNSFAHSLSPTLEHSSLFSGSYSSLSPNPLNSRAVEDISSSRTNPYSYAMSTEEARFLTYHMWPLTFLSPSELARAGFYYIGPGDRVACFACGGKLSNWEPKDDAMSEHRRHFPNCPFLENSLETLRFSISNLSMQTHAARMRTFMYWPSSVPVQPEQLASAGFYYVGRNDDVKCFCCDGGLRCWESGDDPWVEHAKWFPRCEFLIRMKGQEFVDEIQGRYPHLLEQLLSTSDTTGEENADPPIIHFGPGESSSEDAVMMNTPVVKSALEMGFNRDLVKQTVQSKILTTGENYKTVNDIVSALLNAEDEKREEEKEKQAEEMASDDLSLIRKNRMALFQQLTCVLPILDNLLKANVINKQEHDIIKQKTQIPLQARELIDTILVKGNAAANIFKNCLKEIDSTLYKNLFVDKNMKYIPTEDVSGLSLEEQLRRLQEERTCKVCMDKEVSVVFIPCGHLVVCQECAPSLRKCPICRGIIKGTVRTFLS

EC50 [1]	EC50 [2]	EC50 [3]	EC50 [4]	EC50 [5]	EC50 [6]	EC50 [7]	EC50 [8]	Ki [9]	EC50 [10]	EC50 [11]	Kd [12, 16]	EC50 [13]	ΔTm at 40 µM [14]	ΔTm [°C] (Supplementary Table S1) ([14]; first column)	ΔTm [°C] (Supplementary Table S1) ([14]; second column)	EC50 [15]	Structure (SMILES)	other results
9.2 ± 1 nM	681 ± 68 nM	17 ± 2.4 nM	19.9 ± 2.6 nM	4.6 ± 0.2 nM	1.5 ± 0.2 nM	1230 ± 325 nM	108 ± 7.5 nM	2 ± 1.1 nM	333 ± 35.4 nM	93.9 ± 9.3 nM	37.5 ± 6.1 nM	0.4 ± 0.2 nM	–	–	–	–	CN[C@@H](C)C(=O)N[C@H](C(=O)N1CCC[C@H]1C(=O)N[C@@H]1CCCc2ccccc21)C1CCCCC1 [A 410099.1]	IC50 ([9]; BIRC2 BIR3 domain, 5 nM probe, 30 nM protein, approximations, read-out: FP assay IC50 (estimated)): 5.4 nM; ITC ΔG ([12]; 25°C): -10.04 kcal/mol; ITC ΔH ([12]; 25°C): -8.23 kcal/mol; Kd ([12]; 25°C, exemplary titration, read-out: ITC KD (Figure 2E,F)): 43.6 nM; ITC stoichiometry n ([12]; exemplary titration, Figure 2E,F): 1.074; gain in potency on single BIR3 domain compared to full-length protein ([13]; NanoBRET, single BIR3 domain vs full-length): about 10 fold
62 ± 8.5 nM	8135 ± 52.3 nM	18 ± 4.5 nM	25.1 ± 5.2 nM	–	5.2 ± 1.2 nM	467 ± 21 nM	69.6 ± 0.3 nM	–	–	69.3 ± 21.1 nM	–	–	11.6 ± 0.2 °C	11.8 °C	11.8 °C	28.5 ± 5.2 nM	CN[C@@H](C)C(=O)N[C@H]1CN(C(=O)CC(C)C)CC[C@H]2CC[C@@H](C(=O)NC(c3ccccc3)c3ccccc3)N2C1=O [AT406]	ΔTm [°C] (Supplementary Table S1) ([14]; third column): 11.4 °C
800 ± 400 nM	17400 ± 1700 nM	–	–	–	900 nM	18300 ± 1100 nM	3500 ± 100 nM	–	–	2200 ± 1100 nM	–	–	–	–	–	–	CC[C@H](NC(=O)[C@H](C)NC)C(=O)N1C[C@@H](O)C[C@H]1Cc1c(-c2[nH]c3cc(F)ccc3c2C[C@@H]2C[C@H](O)CN2C(=O)[C@H](CC)NC(=O)[C@H](C)NC)[nH]c2cc(F)ccc12 [Birinapant]	–
739 ± 108 nM	14800 ± 636 nM	–	–	622 ± 232 nM	20 ± 3.1 nM	10100 ± 1230 nM	272 ± 6.1 nM	2.9 ± 0.3 nM	15400 ± 8970 nM	218 ± 48.3 nM	44.7 ± 11.8 nM	54.4 ± 1 nM	10.8 ± 0.1 °C	10.9 °C	10.9 °C	190 ± 26.9 nM	CN[C@@H](C)C(=O)N[C@H](C(=O)N1CCC[C@H]1C(=O)Nc1sc(-c2ncco2)nc1-c1ccccc1)C1CCCCC1 [CUDC-427]	Mean, ΔTm [°C] (Supplementary Table S1) ([14]; mean of n=3, difference to DMSO control): 10.9 °C
